In PubChem BioAssay (NCI):
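Briefly, cells in 96-well plates were exposed to five compound concentrations for 48 h, and endpoints were estimated by linear interpolation. Here, GI50 denotes the concentration required for 50% inhibition of growth. TGI is the concentration that stops growth completely.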

Columns and labels:
Experiment in all cases: NCI anticancer screen, dose series, 48 h
[1] = tested on: HOP-62 NSCLC
[2] = tested on: MALME-3M melanoma
[3] = tested on: UO-31 renal
[4] = tested on: OVCAR-8 ovarian
[5] = tested on: KM20L2 colon
[6] = tested on: DLD-1 colon
[7] = tested on: K-562 leukemia
[8] = tested on: OVCAR-5 ovarian
[9] = tested on: BT-549 breast
[10] = tested on: HS 578T breast

Work on `C=C1CC(CC)(CCN2C(=O)c3ccccc3C2=O)OC1=O` (stereo not given) yielded a TGI [1] of over 100 µM, a TGI [2] of 27.3 µM and a TGI [3] of 36.2 µM. The TGI [4] was 36.2 µM, the TGI [5] was 46.1 µM and the TGI [6] was 80.7 µM. It also gave a TGI [7] of over 100 µM.

With `CC(C)N(C(=O)c1cccc(C(=O)N(C(C)C)C(C)C)c1)C(C)C` the TGI [1] was over 100 µM, the TGI [8] was over 100 µM and the TGI [2] was over 100 µM. The TGI [3] was over 100 µM, the TGI [4] was over 100 µM and the TGI [5] was over 100 µM. It also gave a TGI [6] of over 100 µM and a TGI [7] of over 100 µM.

For `COC(=O)CCC(NC(=S)N/N=C(\C)c1ccc[nH]1)C(=O)OC` (stereo not given), the TGI [1] was over 100 µM, the TGI [8] was over 100 µM and the TGI [2] was over 100 µM. It also gave a TGI [3] of over 100 µM, a TGI [4] of over 100 µM and a TGI [5] of over 100 µM. The TGI [6] was over 100 µM and the TGI [7] was over 100 µM.

`Cc1cc(N(CCC#N)S(=O)(=O)c2ccccc2)ccc1/C=C1\N=C(c2ccc(Cl)cc2)OC1=O` was tested, and the TGI [8] was over 100 µM, the TGI [2] was over 100 µM and the TGI [3] was over 100 µM. The TGI [4] was over 100 µM, the TGI [5] was over 100 µM and the TGI [6] was over 100 µM. For the same compound, the TGI [7] was over 100 µM.

Work on `CCOC(=O)N1C/C(=C\c2ccccc2)C(=O)/C(=C/c2ccccc2)C1` yielded a TGI [1] of 24.8 µM, a TGI [8] of 18.2 µM and a TGI [2] of 16.9 µM. The TGI [9] was 4.54 µM, the TGI [3] was 12.4 µM and the TGI [4] was 9.51 µM. It also gave a TGI [5] of 22.4 µM, a TGI [10] of 15.3 µM and a TGI [6] of 7.25 µM. It also gave a TGI [7] of over 38.3 µM.

Work on `CCO/C=C1\N=C(c2ccc(Cl)c(Cl)c2)OC1=O` yielded a TGI [1] of over 100 µM, a TGI [8] of over 100 µM and a TGI [2] of over 100 µM. For the same compound, the TGI [3] was over 100 µM, the TGI [4] was over 100 µM and the TGI [5] was over 100 µM. For the same compound, the TGI [6] was over 100 µM and the TGI [7] was over 100 µM.

`CC(C)C1CO[C@]2(C)CCC(=O)N12` (stereo not given in full) was tested, and the TGI [1] was over 100 µM, the TGI [2] was over 100 µM and the TGI [3] was over 100 µM. It also gave a TGI [4] of over 100 µM, a TGI [5] of over 100 µM and a TGI [6] of over 100 µM. For the same compound, the TGI [7] was over 100 µM.

Work on `C#CC1(O)CCC2C3CCc4cc(Oc5nc(F)nc(-c6c7ccccc7c7n6CCS7)n5)ccc4C3CC[C@@]21C` (stereo not given in full) yielded a TGI [1] of 36.1 µM, a TGI [8] of over 100 µM and a TGI [2] of over 100 µM. The TGI [3] was 78.3 µM, the TGI [4] was over 100 µM and the TGI [5] was over 100 µM. It also gave a TGI [6] of over 100 µM and a TGI [7] of over 100 µM.

`COc1cc(CNc2nc3c(N)cc(C(F)(F)F)cc3nc2-c2ccccc2)cc(OC)c1OC` showed a TGI [1] of over 100 µM, a TGI [8] of over 100 µM and a TGI [2] of over 100 µM. The TGI [3] was 85.5 µM, the TGI [4] was over 100 µM and the TGI [5] was over 100 µM. The TGI [6] was over 100 µM and the TGI [7] was over 100 µM.

Compound `ClC(Cl)=C(Cl)C1(Cl)CC1COCc1ccccc1` (stereo not given) has a TGI [1] of 79.3 µM, a TGI [8] of over 100 µM and a TGI [2] of 43.7 µM. It also gave a TGI [3] of 74.1 µM, a TGI [4] of over 100 µM and a TGI [5] of over 100 µM. For the same compound, the TGI [6] was over 100 µM and the TGI [7] was over 100 µM.

For `O=c1cccccc1[O-].O=c1cccccc1[O-].O=c1cccccc1[O-].[Eu+3]`, the GI50 [1] was 24.9 µM, the TGI [1] was 90.2 µM and the TGI [8] was over 100 µM. For the same compound, the TGI [2] was over 100 µM, the TGI [3] was over 100 µM and the TGI [4] was 63.8 µM. It also gave a GI50 [5] of 27.2 µM, a TGI [5] of over 100 µM and a GI50 [6] of 24 µM. The TGI [6] was over 100 µM and the TGI [7] was over 100 µM.

`CCC[CH2][Sn]([CH2]CCC)([O]C(=O)c1cc(OC)c(OC)cc1OC)[O][Sn]([CH2]CCC)([CH2]CCC)[O]C(=O)c1cc(OC)c(OC)cc1OC` showed a GI50 [1] of 2.11 µM, a TGI [1] of 3.67 µM and a GI50 [8] of 1.75 µM. The TGI [8] was 3.14 µM, the GI50 [2] was 0.229 µM and the TGI [2] was 0.977 µM. It also gave a GI50 [3] of 1.33 µM, a TGI [3] of 2.6 µM and a GI50 [4] of 0.583 µM. It also gave a TGI [4] of 1.89 µM, a GI50 [5] of 1.21 µM and a TGI [5] of 2.56 µM. It also gave a GI50 [6] of 0.253 µM, a TGI [6] of 1.34 µM and a GI50 [7] of 0.0812 µM. The TGI [7] was 8.43 µM.

With `CCCn1c(SCCSc2c3ccccc3c(-c3nc(F)nc(F)n3)n2CCC)c2ccccc2c1-c1nc(F)nc(F)n1` the TGI [1] was over 100 µM, the TGI [8] was over 100 µM and the TGI [2] was over 100 µM. The TGI [3] was over 100 µM, the TGI [4] was over 100 µM and the TGI [5] was over 100 µM. It also gave a TGI [6] of 40.4 µM and a TGI [7] of over 100 µM.

Work on `O=C(/C=C(\O)C(=O)O)/C=C(\O)c1ccccc1` yielded a GI50 [1] of over 1 µM, a TGI [1] of over 76.2 µM and a GI50 [8] of over 100 µM. For the same compound, the TGI [8] was over 100 µM, the GI50 [2] was over 100 µM and the TGI [2] was over 100 µM. It also gave a GI50 [3] of over 1 µM, a TGI [3] of over 1 µM and a TGI [4] of over 100 µM. For the same compound, the GI50 [5] was over 1 µM, the TGI [5] was over 100 µM and the TGI [6] was over 100 µM. The GI50 [7] was over 1 µM and the TGI [7] was over 100 µM.

Work on `O=c1cc(-c2ccccn2)[nH]c2cccc(F)c12` yielded a TGI [1] of over 100 µM, a TGI [8] of over 100 µM and a TGI [3] of over 100 µM. It also gave a TGI [4] of over 100 µM, a TGI [5] of over 100 µM and a TGI [6] of over 100 µM. The TGI [7] was over 100 µM.

With `COc1cc2c(cc1OC)C(C(=O)O)C(c1ccccc1)N(C)C2=O` (stereo not given) the TGI [1] was over 100 µM, the TGI [8] was over 100 µM and the TGI [2] was over 100 µM. The TGI [3] was over 100 µM, the TGI [4] was over 100 µM and the TGI [5] was over 100 µM. The TGI [6] was over 100 µM and the TGI [7] was over 100 µM.

With `CCOC(=O)NC(=O)c1cn(CCN2CCN(C(=O)CNC(=O)CNC(=O)Cn3cc(C(=O)NC(=O)OCC)c(=O)[nH]c3=O)CC2)c(=O)[nH]c1=O` the TGI [1] was over 100 µM, the TGI [8] was over 100 µM and the TGI [2] was over 100 µM. The TGI [3] was over 100 µM, the TGI [4] was over 100 µM and the TGI [5] was over 100 µM. The TGI [6] was over 100 µM and the TGI [7] was over 100 µM.

In the case of `C/C(CC(=O)Nc1cccc(Cl)c1C)=N\NC(N)=S`, the TGI [1] is reported as over 100 µM, the TGI [8] is reported as over 100 µM and the TGI [2] is reported as over 100 µM. The TGI [3] was over 100 µM, the TGI [4] was over 100 µM and the TGI [5] was over 100 µM. For the same compound, the TGI [6] was over 100 µM and the TGI [7] was over 100 µM.

In the case of `COC1C(OC(=O)c2ccc(C)[nH]2)C(O)C(Oc2ccc3c(O)c(NC(=O)c4c[nH]c(C(=O)Nc5c(O)c6ccc(OC7OC(C)(C)C(OC)C(OC(=O)c8ccc(C)[nH]8)C7O)c(C)c6oc5=O)c4C)c(=O)oc3c2C)OC1(C)C` (stereo not given), the TGI [8] is reported as 9.96 µM, the TGI [2] is reported as 5.02 µM and the TGI [3] is reported as 2.94 µM. For the same compound, the TGI [4] was over 100 µM, the TGI [5] was 15.6 µM and the TGI [6] was 6.08 µM. For the same compound, the TGI [7] was over 100 µM.

Work on `CC(C)/C=C1\CCC(CN2CCOCC2)C1=O` (stereo not given) yielded a TGI [1] of over 100 µM, a TGI [8] of 39.4 µM and a TGI [2] of 31 µM. For the same compound, the TGI [3] was 38.6 µM, the TGI [4] was over 40.8 µM and the TGI [5] was 38.2 µM. For the same compound, the TGI [6] was 8.86 µM and the TGI [7] was 9.06 µM.

Work on `N#C/C(=C1\SCC(=O)N1c1ccccc1)c1nc2ccccc2[nH]1` yielded a TGI [1] of over 100 µM, a TGI [8] of over 100 µM and a TGI [2] of over 100 µM. The TGI [3] was over 100 µM, the TGI [4] was over 100 µM and the TGI [5] was over 100 µM. The TGI [6] was over 100 µM and the TGI [7] was over 100 µM.

In the case of `COc1ccccc1N=Nc1c(-c2ccccc2)nn(C(=O)CC(=O)Nc2cccc(C)c2)c1-c1ccccc1`, the TGI [1] is reported as over 100 µM, the TGI [8] is reported as over 100 µM and the TGI [2] is reported as over 100 µM. It also gave a TGI [3] of over 100 µM, a TGI [4] of over 100 µM and a TGI [5] of 88.1 µM. It also gave a TGI [6] of over 100 µM and a TGI [7] of 52.7 µM.
